Data from ChEMBL document CHEMBL5465560, “Selectivity Literature for EUbOPEN Chemogenomic Library” (2024).

Tests used:
[1] = target: T1, Bone morphogenetic protein receptor type-2 (Homo sapiens) (UniProt Q13873); assay: Selectivity interaction (KinomeScan (DiscoverX)) EUB0000045b BMPR2
T1 sequence (whole entry): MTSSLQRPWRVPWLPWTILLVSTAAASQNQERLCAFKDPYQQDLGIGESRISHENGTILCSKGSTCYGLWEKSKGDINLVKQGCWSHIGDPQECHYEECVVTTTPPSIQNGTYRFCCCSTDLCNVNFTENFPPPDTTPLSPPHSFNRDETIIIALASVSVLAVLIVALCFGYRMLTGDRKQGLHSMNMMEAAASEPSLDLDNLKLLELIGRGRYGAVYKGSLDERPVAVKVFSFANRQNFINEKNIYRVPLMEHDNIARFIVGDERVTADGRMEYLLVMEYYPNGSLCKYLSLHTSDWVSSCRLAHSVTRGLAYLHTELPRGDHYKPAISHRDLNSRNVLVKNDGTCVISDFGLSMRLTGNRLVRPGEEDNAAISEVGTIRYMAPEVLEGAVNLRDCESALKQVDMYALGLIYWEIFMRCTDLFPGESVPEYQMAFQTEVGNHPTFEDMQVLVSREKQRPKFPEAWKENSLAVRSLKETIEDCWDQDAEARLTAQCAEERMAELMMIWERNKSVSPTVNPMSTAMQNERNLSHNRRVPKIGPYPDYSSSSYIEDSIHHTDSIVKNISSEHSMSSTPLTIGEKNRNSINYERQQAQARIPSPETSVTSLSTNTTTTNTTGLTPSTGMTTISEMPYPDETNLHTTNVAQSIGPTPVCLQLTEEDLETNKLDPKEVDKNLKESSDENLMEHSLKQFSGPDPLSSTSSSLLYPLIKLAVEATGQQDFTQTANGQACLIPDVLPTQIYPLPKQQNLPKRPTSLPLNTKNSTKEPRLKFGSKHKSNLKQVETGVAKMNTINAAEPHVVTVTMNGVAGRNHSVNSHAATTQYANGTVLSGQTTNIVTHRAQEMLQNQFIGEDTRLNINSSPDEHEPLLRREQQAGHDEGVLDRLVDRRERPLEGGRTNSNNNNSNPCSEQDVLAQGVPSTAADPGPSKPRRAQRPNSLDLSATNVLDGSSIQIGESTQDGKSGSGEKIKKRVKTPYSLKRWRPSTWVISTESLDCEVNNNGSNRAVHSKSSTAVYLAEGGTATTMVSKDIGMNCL

D(1A) dopamine receptor = D(1A) dopamine receptor (Homo sapiens, UniProt P21728); assay: Selectivity interaction (Panel of non-epigenetic targets (kinases, GPCRs, ion channels, and transporters, Eurofins) ) EUB0000271b DRD1; conditions: at 1 µM
Sequence of D(1A) dopamine receptor (P21728 whole entry): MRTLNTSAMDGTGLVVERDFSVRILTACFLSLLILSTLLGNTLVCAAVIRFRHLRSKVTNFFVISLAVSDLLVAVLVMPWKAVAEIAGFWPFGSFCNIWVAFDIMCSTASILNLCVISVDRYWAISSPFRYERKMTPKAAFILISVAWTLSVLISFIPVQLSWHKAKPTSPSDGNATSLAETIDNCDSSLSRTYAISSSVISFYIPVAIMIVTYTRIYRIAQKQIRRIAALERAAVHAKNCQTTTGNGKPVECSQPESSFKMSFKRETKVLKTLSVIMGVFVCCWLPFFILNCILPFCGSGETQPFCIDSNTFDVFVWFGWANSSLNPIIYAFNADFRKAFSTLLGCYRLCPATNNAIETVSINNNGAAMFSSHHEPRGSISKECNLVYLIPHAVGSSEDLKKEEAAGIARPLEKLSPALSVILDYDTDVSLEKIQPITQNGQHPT

[2] = target: Histone-lysine N-methyltransferase PRDM9 (Homo sapiens) (UniProt Q9NQV7); assay: Selectivity interaction (Methyltransferase screen (radiometric assays, panel of 8 PRMTs, 21 protein lysine methyltransferases, 3 DNA methyltransferases, and one RNA methyltransferase)) EUB0000271b PRDM9
Sequence of Histone-lysine N-methyltransferase PRDM9 (Homo sapiens) (Q9NQV7 whole entry): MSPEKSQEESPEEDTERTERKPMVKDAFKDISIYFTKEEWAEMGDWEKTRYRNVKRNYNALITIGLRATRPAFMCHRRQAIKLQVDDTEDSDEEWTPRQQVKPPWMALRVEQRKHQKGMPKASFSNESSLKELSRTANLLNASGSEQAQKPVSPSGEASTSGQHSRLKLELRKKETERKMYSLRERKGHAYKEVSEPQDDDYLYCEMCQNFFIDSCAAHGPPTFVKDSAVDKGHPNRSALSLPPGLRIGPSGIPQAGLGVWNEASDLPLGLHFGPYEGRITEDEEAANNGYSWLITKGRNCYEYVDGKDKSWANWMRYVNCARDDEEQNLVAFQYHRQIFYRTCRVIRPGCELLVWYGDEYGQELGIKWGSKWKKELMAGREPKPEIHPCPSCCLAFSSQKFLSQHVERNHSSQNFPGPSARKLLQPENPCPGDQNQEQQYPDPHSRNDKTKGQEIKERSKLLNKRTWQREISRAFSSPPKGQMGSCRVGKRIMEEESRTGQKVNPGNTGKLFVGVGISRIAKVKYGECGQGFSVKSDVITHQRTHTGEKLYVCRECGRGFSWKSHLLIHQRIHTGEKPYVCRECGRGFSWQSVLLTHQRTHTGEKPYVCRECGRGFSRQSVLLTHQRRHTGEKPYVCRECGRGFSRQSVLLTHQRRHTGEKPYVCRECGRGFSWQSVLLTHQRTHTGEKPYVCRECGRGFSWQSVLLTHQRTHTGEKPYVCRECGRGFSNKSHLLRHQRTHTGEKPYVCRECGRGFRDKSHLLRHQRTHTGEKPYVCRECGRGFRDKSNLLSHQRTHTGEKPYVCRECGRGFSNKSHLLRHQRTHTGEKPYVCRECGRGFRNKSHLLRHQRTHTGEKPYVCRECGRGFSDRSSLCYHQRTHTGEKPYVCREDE

[3] = target: T2, Ephrin type-A receptor 1 (Homo sapiens) (UniProt P21709); assay: Selectivity interaction (KinomeScan (DiscoverX)) EUB0001049a EPHA1; conditions: at 1 µM
T2 sequence (whole entry): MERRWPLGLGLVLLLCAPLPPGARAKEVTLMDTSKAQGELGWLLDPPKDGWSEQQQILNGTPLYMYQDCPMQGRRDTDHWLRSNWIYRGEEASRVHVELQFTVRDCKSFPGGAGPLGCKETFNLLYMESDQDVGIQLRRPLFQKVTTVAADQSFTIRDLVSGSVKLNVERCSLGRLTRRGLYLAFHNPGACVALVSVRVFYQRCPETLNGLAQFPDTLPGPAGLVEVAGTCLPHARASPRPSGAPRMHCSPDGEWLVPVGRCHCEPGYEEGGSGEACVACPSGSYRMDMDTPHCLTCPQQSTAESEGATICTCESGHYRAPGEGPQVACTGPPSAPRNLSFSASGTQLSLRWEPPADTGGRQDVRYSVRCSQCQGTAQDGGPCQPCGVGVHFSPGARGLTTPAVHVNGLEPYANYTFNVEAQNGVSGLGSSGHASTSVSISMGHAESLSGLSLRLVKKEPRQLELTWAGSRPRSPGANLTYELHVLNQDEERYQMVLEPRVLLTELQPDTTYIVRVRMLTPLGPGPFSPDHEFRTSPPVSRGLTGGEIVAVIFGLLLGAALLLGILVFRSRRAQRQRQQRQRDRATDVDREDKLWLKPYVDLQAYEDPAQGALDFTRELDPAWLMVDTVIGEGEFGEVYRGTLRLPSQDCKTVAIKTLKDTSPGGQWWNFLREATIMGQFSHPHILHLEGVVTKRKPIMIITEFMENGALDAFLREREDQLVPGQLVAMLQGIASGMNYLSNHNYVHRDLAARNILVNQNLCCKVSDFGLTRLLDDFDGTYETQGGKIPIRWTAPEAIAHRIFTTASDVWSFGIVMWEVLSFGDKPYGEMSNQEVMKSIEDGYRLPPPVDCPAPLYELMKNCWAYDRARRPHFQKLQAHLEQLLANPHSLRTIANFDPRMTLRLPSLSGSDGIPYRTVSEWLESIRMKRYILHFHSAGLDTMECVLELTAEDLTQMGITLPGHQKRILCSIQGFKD

[4] = target: Dual specificity mitogen-activated protein kinase kinase 1 (Homo sapiens, UniProt Q02750); conditions: at 10 µM
Sequence of Dual specificity mitogen-activated protein kinase kinase 1 (Q02750 whole entry): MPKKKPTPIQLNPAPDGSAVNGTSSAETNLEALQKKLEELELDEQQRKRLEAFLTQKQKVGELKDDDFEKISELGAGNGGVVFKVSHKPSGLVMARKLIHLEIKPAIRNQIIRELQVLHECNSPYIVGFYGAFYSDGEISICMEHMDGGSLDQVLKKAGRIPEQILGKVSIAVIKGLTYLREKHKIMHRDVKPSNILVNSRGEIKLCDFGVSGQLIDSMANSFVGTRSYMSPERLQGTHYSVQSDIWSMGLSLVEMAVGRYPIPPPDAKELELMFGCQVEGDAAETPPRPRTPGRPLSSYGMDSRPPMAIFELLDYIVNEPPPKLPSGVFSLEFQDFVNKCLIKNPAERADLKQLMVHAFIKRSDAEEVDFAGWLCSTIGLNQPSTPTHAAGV

[5] = target: Proto-oncogene tyrosine-protein kinase ROS (Homo sapiens) (UniProt P08922); assay: Selectivity interaction (KinomeScan (DiscoverX)) EUB0000607a ROS1; conditions: at 10 µM
Sequence of Proto-oncogene tyrosine-protein kinase ROS (Homo sapiens) (P08922 whole entry): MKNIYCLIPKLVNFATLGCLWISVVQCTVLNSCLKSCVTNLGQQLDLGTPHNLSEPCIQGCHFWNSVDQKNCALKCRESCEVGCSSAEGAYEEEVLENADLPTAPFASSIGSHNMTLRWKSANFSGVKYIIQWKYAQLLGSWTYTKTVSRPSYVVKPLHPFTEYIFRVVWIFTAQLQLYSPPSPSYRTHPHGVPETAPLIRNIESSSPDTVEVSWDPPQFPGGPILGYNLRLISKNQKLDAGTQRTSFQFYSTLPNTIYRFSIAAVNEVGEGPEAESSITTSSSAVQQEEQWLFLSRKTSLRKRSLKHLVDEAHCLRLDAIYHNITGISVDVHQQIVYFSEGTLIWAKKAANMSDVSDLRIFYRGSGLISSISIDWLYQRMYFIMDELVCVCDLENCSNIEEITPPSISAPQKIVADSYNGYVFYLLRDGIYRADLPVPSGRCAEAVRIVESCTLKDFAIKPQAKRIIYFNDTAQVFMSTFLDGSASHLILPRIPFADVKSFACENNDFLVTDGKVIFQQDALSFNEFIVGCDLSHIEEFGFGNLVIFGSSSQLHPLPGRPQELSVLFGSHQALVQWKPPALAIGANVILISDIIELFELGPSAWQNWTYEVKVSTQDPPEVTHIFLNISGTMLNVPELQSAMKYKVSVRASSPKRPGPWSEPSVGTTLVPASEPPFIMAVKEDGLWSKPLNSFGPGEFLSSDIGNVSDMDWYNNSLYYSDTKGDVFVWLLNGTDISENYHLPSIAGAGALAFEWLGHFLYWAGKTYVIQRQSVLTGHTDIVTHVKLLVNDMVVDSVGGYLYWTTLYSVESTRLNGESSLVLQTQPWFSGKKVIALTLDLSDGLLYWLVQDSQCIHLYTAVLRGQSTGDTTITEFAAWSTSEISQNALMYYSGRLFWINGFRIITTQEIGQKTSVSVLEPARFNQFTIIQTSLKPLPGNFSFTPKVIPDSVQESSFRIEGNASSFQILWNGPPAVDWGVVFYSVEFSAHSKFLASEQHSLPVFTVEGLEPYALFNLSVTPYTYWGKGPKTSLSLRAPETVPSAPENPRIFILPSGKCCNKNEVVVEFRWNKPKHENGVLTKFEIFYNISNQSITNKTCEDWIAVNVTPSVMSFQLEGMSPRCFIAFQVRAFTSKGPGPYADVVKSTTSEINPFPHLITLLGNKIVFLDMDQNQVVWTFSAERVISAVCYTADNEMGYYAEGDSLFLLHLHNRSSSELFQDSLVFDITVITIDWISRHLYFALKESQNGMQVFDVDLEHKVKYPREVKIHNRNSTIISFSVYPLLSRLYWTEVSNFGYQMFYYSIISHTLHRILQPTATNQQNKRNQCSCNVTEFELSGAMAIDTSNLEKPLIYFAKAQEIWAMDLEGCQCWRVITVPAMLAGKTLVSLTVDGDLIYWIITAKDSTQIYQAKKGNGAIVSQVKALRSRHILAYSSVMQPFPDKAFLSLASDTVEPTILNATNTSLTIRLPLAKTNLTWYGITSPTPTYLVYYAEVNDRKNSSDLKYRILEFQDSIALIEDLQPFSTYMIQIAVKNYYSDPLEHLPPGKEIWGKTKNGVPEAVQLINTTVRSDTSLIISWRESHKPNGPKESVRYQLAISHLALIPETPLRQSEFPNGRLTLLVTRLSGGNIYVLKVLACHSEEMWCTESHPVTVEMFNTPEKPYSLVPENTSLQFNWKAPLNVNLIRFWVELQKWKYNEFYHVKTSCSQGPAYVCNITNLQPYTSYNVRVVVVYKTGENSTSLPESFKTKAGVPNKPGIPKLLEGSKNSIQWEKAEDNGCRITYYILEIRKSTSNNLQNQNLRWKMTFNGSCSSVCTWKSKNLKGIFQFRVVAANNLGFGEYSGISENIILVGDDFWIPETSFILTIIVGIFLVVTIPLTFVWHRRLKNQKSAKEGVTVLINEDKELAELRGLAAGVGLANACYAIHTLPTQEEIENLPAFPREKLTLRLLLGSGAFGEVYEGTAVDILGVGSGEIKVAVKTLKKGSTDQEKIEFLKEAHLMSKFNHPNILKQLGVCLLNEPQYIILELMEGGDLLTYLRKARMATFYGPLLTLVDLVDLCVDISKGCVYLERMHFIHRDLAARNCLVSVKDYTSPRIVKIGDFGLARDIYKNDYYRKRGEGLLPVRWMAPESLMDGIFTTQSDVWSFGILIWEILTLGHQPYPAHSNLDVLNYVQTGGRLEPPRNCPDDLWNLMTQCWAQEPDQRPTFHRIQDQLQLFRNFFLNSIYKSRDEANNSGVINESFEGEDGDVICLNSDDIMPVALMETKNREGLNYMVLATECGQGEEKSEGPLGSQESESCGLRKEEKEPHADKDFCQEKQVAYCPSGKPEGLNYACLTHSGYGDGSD

[6] = target: Phosphatidylinositol 3-kinase catalytic subunit type 3 (Homo sapiens, UniProt Q8NEB9); assay: Selectivity interaction (ActivX KiNativ screen (kinase selectivity in THP-1 cell lysates)) EUB0000639a PIK3C3; type: subcellular; conditions: lysate, at 1 µM
Focal adhesion kinase 1 = Focal adhesion kinase 1 (Homo sapiens, UniProt Q05397); assay: Selectivity interaction (KinomeScan (DiscoverX)) EUB0000655a PTK2; conditions: at 10 µM
Sequence of Focal adhesion kinase 1 (Q05397 2-1052 limits assumed): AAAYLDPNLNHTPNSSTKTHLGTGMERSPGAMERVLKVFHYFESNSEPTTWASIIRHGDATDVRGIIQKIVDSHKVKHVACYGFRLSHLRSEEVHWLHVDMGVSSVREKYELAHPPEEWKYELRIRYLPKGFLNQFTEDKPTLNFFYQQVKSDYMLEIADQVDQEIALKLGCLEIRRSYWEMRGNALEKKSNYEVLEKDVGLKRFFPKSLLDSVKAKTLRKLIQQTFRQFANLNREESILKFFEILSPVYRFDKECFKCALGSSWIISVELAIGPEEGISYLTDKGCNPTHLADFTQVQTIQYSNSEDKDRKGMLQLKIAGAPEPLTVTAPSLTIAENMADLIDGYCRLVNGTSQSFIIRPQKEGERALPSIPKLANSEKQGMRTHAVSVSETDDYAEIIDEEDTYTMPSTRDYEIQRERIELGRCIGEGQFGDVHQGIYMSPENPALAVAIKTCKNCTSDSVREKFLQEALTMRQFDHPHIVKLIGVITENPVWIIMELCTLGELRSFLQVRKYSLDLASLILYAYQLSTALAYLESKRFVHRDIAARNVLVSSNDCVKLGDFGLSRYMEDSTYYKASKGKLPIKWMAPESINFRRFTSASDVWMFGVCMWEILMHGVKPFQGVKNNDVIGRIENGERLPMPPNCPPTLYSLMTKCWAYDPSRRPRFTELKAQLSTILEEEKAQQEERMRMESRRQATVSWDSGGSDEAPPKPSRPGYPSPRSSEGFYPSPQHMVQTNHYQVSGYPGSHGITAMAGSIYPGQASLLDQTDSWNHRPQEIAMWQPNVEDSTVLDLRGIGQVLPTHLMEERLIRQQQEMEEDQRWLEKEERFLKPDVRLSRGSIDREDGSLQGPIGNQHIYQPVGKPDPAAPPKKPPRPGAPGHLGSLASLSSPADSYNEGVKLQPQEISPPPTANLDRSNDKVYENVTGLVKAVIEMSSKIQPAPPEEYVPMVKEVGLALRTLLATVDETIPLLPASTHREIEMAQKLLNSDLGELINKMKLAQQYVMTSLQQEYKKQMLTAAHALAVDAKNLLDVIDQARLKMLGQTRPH

C=CC(=O)Nc1cc(-n2c(=O)ccc3cnc4ccc(-c5ccc(NS(C)(=O)=O)cc5)cc4c32)ccc1C
% of control ([1]; at 1 µM): 69% | % of control ([1]; at 10 µM): 50%

Cc1cc(C)cc([C@@H]2c3cc(C)ccc3NC(=O)CN2C(=O)c2ccc(Br)s2)c1
% of inhibition (D(1A) dopamine receptor): 9% | % of activity ([2]; at 1 µM): 102% | % of activity ([2]; at 10 µM): 97%

COc1cc(Nc2nc(C)cc(-c3cnn4nc(OC)ccc34)n2)cc(C(F)(F)F)c1
% of control [3]: 93%

CC(=O)Nc1cccc(-n2c(=O)n(C3CC3)c(=O)c3c(Nc4ccc(I)cc4F)n(C)c(=O)c(C)c32)c1
% of control [4]: 28%

CNC(=O)Nc1ccc(-c2nc(N3CC4CCC(C3)O4)c3cnn(C4CCC5(CC4)OCCO5)c3n2)cc1
% of control [5]: 81%

CC[C@@H]1[C@H](F)C(=O)N[C@@H]1COc1nccc2cc(C(N)=O)c(OC)cc12 [ZIMLOVISERTIB]
% of inhibition [6]: -13.7%

CN(C)CCOc1ccc(-c2nc(-c3ccncc3)c(-c3ccc4c(c3)CC/C4=N\O)[nH]2)cc1
% of control (Focal adhesion kinase 1): 100%
